This is an account of results in a melting point compilation (Tetko et al.; mined from patent text by program, amines drawn as free bases though some values may be those of a salt).

The structures appear in SMILES notation. Starred links: 1 amine or outer side, 2 acyl side, 3 side chain; linkers in the order of their positions; H or OH if unused. Residues, ends and D or L forms follow the SMILES beside them. *: point of attachment. βAsp = O=C(O)[CH](CC(=O)[*:2])N[*:1]; Bz = O=C(c1ccccc1)*

The compound `CCCCc1nn(-c2cc(NC(C)=O)ccc2Cl)c(=O)n1Cc1ccc(-c2cc(CCC)ccc2S(=O)(=O)NC(=O)OC(C)(C)C)cc1F` returned a melting point of less than 130 °C.

`COc1ccc(C(F)(F)F)cc1-n1c(=O)[nH]c2cc(C(F)(F)F)ccc21`: the melting point stood at 226 °C.

Consider `CC(C)C(C(=O)O)c1cc(Cl)c(O)c(Cl)c1` (stereo not drawn), for which the melting point was 152 to 154 °C.

For `CC(CC(=O)Nc1cccc(/C=C/c2nc(C3CCC3)cs2)c1)C(=O)O` (stereo not drawn), the melting point was 165 to 167 °C.

For the compound `CCOc1cc(Cn2cc(CCC(=O)O)c(-c3ccccc3)c2)cc(OCc2csc(-c3ccccc3)n2)c1`, the melting point is 109 to 110 °C.

Regarding `COc1ccc2nc(C(F)(F)F)c(C(=O)Nc3nccs3)c(O)c2c1`, the melting point is greater than 270 °C.

`CCn1cc(C(=O)O)c(=O)c2cc(F)c(OC3CCN(C)CC3)cc21` registered a melting point of 268 to 271 °C.

`COc1ccc(CCNCC(O)c2ccc(OCc3ccccc3)c(OCc3ccccc3)c2)cc1OC` (stereo not drawn) had a melting point of 79 to 81 °C.

`CCOC(=O)c1cn(-c2nc(NC(C)C)c(F)cc2F)c2c(Cl)c(F)c(F)cc2c1=O` displayed a melting point of 206 to 209 °C.

With `O=C(c1ccc(Br)cc1)c1cc(Br)c(C(=O)c2ccc(Br)cc2)cc1Br`, the melting point is 254 to 256 °C.

As for `N#CN1CCC2(CC1)CN(c1ccccc1[N+](=O)[O-])c1ccccc12`, the melting point lay in the range of 148 to 150 °C.

`COc1ccc2c(c1)C(NC(C)C)=C(C(N)=O)S2=O` (stereo not drawn): the melting point was determined as 194 °C.

On to `COC(=O)c1ccc(N)c(C(=O)OC)c1`, for which the melting point was 127 to 130 °C.

`Cc1nc2c(c(=O)[nH]1)-c1ccc(Cl)cc1C(c1ccccc1)=NC2` registered a melting point of 245 to 248 °C.

For `CC1=C(C(=O)O)C(C)(C)CCC1=O`, the melting point is 181 to 183 °C.

In turn, `C/C(=N\OC(=O)C1CCN(C(=O)OC(C)(C)C)CC1)[C@H]1CC[C@H]2[C@@H]3CCC4=CC(=O)CC[C@]4(C)[C@H]3CC[C@]12C` displayed a melting point of 167 to 169 °C.

The compound `CC(=O)Oc1ccc(C=CC(=O)O)cc1C=O` displayed a melting point of 205 to 207 °C.

On to `NCC(=O)NCc1ccc(F)cc1`, for which the melting point is 114 to 115 °C.

`CCOC(=O)C(=CNc1nnc(C)s1)C(=O)c1cc(F)c(Cl)nc1Cl`: the melting point lay within 142 to 152 °C.

Compound `C1=C(c2c[nH]c3ccccc23)CCN(CC2COc3ccc4c(c3O2)OCCC4)C1` (stereo not drawn) gave a melting point of 140 °C.

In the case of `COc1c(NC(=O)c2ccccc2)cccc1C(=O)NC1C(Cl)=CC(C(F)(c2ccc(Cl)cc2)C(F)(F)F)=CC1(Cl)OC` (stereo not drawn), the melting point is 163 to 166 °C.

On to `CCOC=CC(=O)Nc1ccc(-n2cnc(C)c2)cc1`, for which the melting point was 214 to 216 °C.

In turn, `CCOC(=O)CSc1n[nH]c(=S)[nH]1` returned a melting point of 134 to 136 °C.

`CC(C)c1ccc2c(c1)C(c1ccc(Cl)c(Cl)c1)Cc1cnc(N)nc1-2` (stereo not drawn) returned a melting point of 174 to 176 °C.

With `CC=Cc1cccc2c(=O)c(C)c(NC(=O)OC(C)(C)C)oc12`, the melting point fell in the range of 200 to 203 °C.

Compound `Clc1n[nH]c2cccc(NC3=NCCN3)c12` came in with a melting point of 245 to 250 °C.

`COC(=O)CSCCCCN(c1cnc(-c2ccccc2)c(-c2ccccc2)n1)C(C)C` had a melting point of 64 to 67 °C.

In turn, `CCCn1cc2c(C3C(=O)Nc4ccc(C#N)cc43)nc(NCc3ccncc3)nc2n1` (stereo not drawn) yielded a melting point of 299 to 302 °C.

With `CO/N=C/c1ccc2c(c1Cn1ccnc1)OCO2`, the melting point was determined as 102 °C.

For the compound `Cn1nc(-c2nc(OCC(N)=O)c(Cl)cc2F)c(Cl)c1OC(F)F`, the melting point is 178 to 180 °C.

The compound `Cc1nc(-c2ccc(C(F)(F)F)cc2)oc1COc1ccc(CCC(=O)O)cc1` gave a melting point of 98 to 100 °C.

The compound `O=C(CS(=O)Cc1ccco1)NCCCOc1cccc(C2OCCO2)c1` (stereo not drawn) gave a melting point of 95.3 to 96.1 °C.

Regarding `CC(=O)c1cn(C)c2ccc(C)cc12`, the melting point fell in the range of 119 to 121 °C.

For the compound `COC(=O)CCc1ccc(N2CCN(c3ccc(C#N)cc3)C2=O)cc1`, the melting point lay in the range of 160 to 162 °C.

Compound `CCN(CC)C(=O)c1c(OC)ccc2cc(Br)ccc12` yielded a melting point of 109 to 110 °C.

`O=c1[nH]c2cc(Cl)ccc2n1CCCN1CCC(O)(c2ccc(Cl)cc2)CC1` yielded a melting point of 191 °C.

In turn, `CCc1cc(C(=O)c2ccccc2Cl)c(-n2c(CC)nnc2CNC(=O)c2ccc(Cl)c(Cl)c2)s1` returned a melting point of 136 to 138 °C.

In turn, `CC(=O)Nc1c(C(=O)c2ccccc2)[nH]c2cc(C#N)ccc12` gave a melting point of 244 to 246 °C.

As to `COc1cccc(N2CCN(C(=O)c3ccccc3C(c3ccc(O)cc3)c3ccc(O)cc3)CC2)c1`, the melting point fell in the range of 229 to 234 °C.

Regarding `C[C@H](NC(=O)c1ccc([N+](=O)[O-])cc1F)C(=O)O`, the melting point lay in the range of 136 to 138 °C.

For the compound `COc1ccc2c(c1)CCC1(CCCCN1C(=O)C(F)(F)F)C2` (stereo not drawn), the melting point is 75 to 76 °C.

`COc1ccc2c(CN(C)C)cc(=O)oc2c1` registered a melting point of 97 °C.

`CC(=O)NCCc1ccc(NC(=O)C=C2CC(C(=O)OCc3ccccc3)Nc3cc(Cl)cc(Cl)c32)cc1` (racemic) had a melting point of 235 to 238 °C.

`COC(=O)c1ccc(Cl)c([N+](=O)[O-])c1Cl`: the melting point was 72 to 74 °C.

Turning to `CC(C)[Si](C(C)C)(C(C)C)C1(CO)c2ccccc2-c2ccccc21`, the melting point is 106 to 108 °C.

The compound `CC1(C)C=Cc2cc(OCc3ccccc3)c(OCc3ccccc3)cc2O1` came in with a melting point of 50 to 51 °C.

`N#Cc1ccc(NS(=O)(=O)c2ccc([N+](=O)[O-])cc2[N+](=O)[O-])cc1`: the melting point fell in the range of 186 to 187 °C.

On to `CN(C)C=Nc1ncc2cc(-c3c(Cl)cccc3Cl)c(N=CN(C)C)nc2n1`, for which the melting point is 269 to 272 °C.

`CCN(CC)C(=S)Oc1cccnc1F` displayed a melting point of 52 to 54 °C.

`CN1C(O)=C(C(=O)Nc2ccccc2Cl)c2ccsc2S1(=O)=O`: the melting point lay within 168 to 170 °C.

Consider `CC1(C)OCC2OC2CO1` (stereo not drawn), for which the melting point is 70 to 74 °C.

`CCCCC(CC)C(=O)Nc1ccc(-n2nc3ccc(C(F)(F)F)cc3n2)c(O)c1` (stereo not drawn) had a melting point of 179 to 181 °C.

In turn, `CC(C)(Oc1ccc(Cl)cc1)C(C)(O)c1cccnc1` (stereo not drawn) registered a melting point of 140 to 141 °C.

For `OCc1ccccc1CBr`, the melting point is 61 to 63 °C.

On to `Cc1cc(CN(C(=O)Nc2ccc(C(=O)O)cc2)c2ccc3c(c2)C(C)(C)CCC3(C)C)no1`, for which the melting point lay in the range of 188 to 193 °C.

`CCCCCCCCCCCCCCC(=O)CC(=O)OC` displayed a melting point of 51 to 53 °C.

`COC(=O)c1ccc(-n2c(C)ccc2C#N)cc1` yielded a melting point of 118 to 119 °C.

For `COc1nccc(-c2c(-c3ccc(F)cc3)ncn2C2CCC(=O)CC2)n1`, the melting point is 212 to 214 °C.

`CC(C)=CCN1Cc2c(Cl)ccc3[nH]c(=S)n(c23)C[C@@H]1C` yielded a melting point of 160 °C.

On to `COC(=O)C(CCSC)c1nc(C)nc2c1nnn2-c1ccc(C(C)C)cc1Br` (stereo not drawn), for which the melting point was in the range of 135 to 137 °C.

The compound `CCCOc1ccc(CN/C=C2\C(=O)NC(=O)c3ccc(-c4ccc(F)cc4)cc32)cc1O` displayed a melting point of 194 to 195 °C.

For `CCc1nc2c(N)nc3ccccc3c2n1CCCC#Cc1ccccn1`, the melting point lay within 188 to 192 °C.

`O=C=NCCC(F)(F)C(F)(F)C(F)(F)C(F)(F)C(F)(F)C(F)(F)C(F)(F)C(F)(F)C(F)(F)C(F)(F)F` returned a melting point of 70 to 71 °C.

`CCCc1c(OCCCCCc2c(O)c(O)c(Cl)c(Cl)c2Cl)ccc(C(=O)O)c1O` showed a melting point of 193 to 196 °C.

With `CCOC(=O)C1=NOC2(CCC(C(C)(C)CC)CC2)C1` (stereo not drawn), the melting point is 82 to 87 °C.

`C[Si](C)(CCCSCCCNC(=O)n1cc(F)c(=O)[nH]c1=O)c1ccccc1` had a melting point of 51 to 52 °C.

`O=C(NC1CCCCC1)NS(=O)(=O)c1ccc(CCNC(=O)N2CCc3ccccc3C2=O)cc1` yielded a melting point of 197 to 198 °C.

`COc1cc(OC)nc(-n2nc(C)oc2=O)n1` yielded a melting point of 158 °C.

`CC(NC(=O)CC(NC(=O)c1ccccc1)C(=O)O)C(=O)N1CCCC1C(=O)O` (stereo not drawn) ({Bz-βAsp}-Ala-Pro-OH; configuration not given here): the melting point amounted to 110 °C.

For `Cc1cc(Oc2c([N+](=O)[O-])cc([N+](=O)[O-])cc2C(F)(F)F)n[nH]1`, the melting point lay within 145 to 147 °C.

With `COc1c([N+](=O)[O-])ncn1C`, the melting point lay within 140 to 141 °C.

In turn, `Cc1nc(-c2ccc(OCCCc3ccccc3)cc2)no1` displayed a melting point of 78.5 to 79 °C.

`COc1ccc(CNC(=O)c2cnc(SC)nc2NC(C)C)cc1` had a melting point of 176 to 177 °C.

Consider `CCCCc1c(/C=C/C(=O)OC)ccc2cc(OC)ccc12`, for which the melting point was 71 to 72 °C.

In turn, `CCC1N=C(c2ccccc2Cl)c2cc(CC(=O)OC)sc2NC1=O` (stereo not drawn) returned a melting point of 202 to 204 °C.

Turning to `CC(C)[C@](C)(S)C(=O)O`, the melting point is 78 to 80 °C.

In turn, `COc1ccc(CNc2ccc(C#N)cc2)cc1F` displayed a melting point of 108 °C.

`O=C(O)CCCC(c1ccccc1)c1ccccc1` showed a melting point of 87 to 90 °C.

As for `NC1=C([N+](=O)[O-])C(=O)NC1=Cc1ccccc1`, the melting point is greater than 260 °C.

As for `CCNC1CC=C(c2c[nH]c3cc(NC(=N)c4cccs4)ccc23)CC1` (stereo not drawn), the melting point lay in the range of 95 to 97 °C.

`Brc1ccc(OCc2ccccc2)cc1OCc1ccccc1` returned a melting point of 37 to 38 °C.

As to `CN1CCN(c2ccc(Cl)c(C3(C)C(=O)Nc4ccc(Cl)cc43)c2)CC1` (stereo not drawn), the melting point was found to be 155 °C.

Compound `COc1cc2c(cc1OC)CN(CCc1ccc([N+](=O)[O-])cc1)CC2` showed a melting point of 118 to 119 °C.

Take `CCOC(=O)c1ccc(OCC2CCCCC2)c([N+](=O)[O-])c1`: the melting point was in the range of 79 to 80 °C.

Compound `CC(C)(C)OC(=O)Nc1c(C#N)cnn1-c1ccc(Cl)c(Cl)c1Cl` displayed a melting point of 140 to 141 °C.

With `COC(=O)C(O)c1cc(F)cc(F)c1` (stereo not drawn), the melting point was 61.8 °C.

Consider `O=C(c1c(Cl)cccc1Cl)P(=O)(C(=O)c1c(Cl)cccc1Cl)c1ccccc1`, for which the melting point came out at 194 °C.

Consider `COC(=O)c1c(C(=O)OC)c(-c2nccnc2C)n(NS(=O)(=O)c2ccc(C)cc2)c1C`, for which the melting point lay in the range of 155 to 156 °C.

As a reminder, the melting point is the temperature, or range, at which the solid turns liquid.
